According to PubChem BioAssay (NCI):
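How tested: cells in 96-well plates exposed to compound for 48 hours at five concentrations. TGI marks complete inhibition of growth.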

Key:
Experiment in all cases: growth of human tumour cells (NCI), 48 h
SK-MEL-5 melanoma = tested on: SK-MEL-5 melanoma
CAKI-1 renal = tested on: CAKI-1 renal
RPMI-8226 leukemia = tested on: RPMI-8226 leukemia
SK-OV-3 ovarian = tested on: SK-OV-3 ovarian
UACC-62 melanoma = tested on: UACC-62 melanoma
SNB-19 CNS = tested on: SNB-19 CNS
TK-10 renal = tested on: TK-10 renal
NCI-H460 lung = tested on: NCI-H460 lung
HL-60(TB) leukemia = tested on: HL-60(TB) leukemia
NCI-H226 lung = tested on: NCI-H226 lung
NCI/ADR-RES ovarian = tested on: NCI/ADR-RES ovarian
T-47D breast = tested on: T-47D breast
PC-3 prostate = tested on: PC-3 prostate
A498 renal = tested on: A498 renal

Row | Structure (SMILES) | TGI (SK-MEL-5 melanoma) [µM] | TGI (CAKI-1 renal) [µM] | TGI (RPMI-8226 leukemia) [µM] | TGI (SK-OV-3 ovarian) [µM] | TGI (UACC-62 melanoma) [µM] | TGI (SNB-19 CNS) [µM] | TGI (TK-10 renal) [µM] | TGI (NCI-H460 lung) [µM] | TGI (HL-60(TB) leukemia) [µM] | TGI (NCI-H226 lung) [µM] | TGI (NCI/ADR-RES ovarian) [µM] | TGI (T-47D breast) [µM] | TGI (PC-3 prostate) [µM] | TGI (A498 renal) [µM]
1 | COC(=O)c1cc(Br)c(C(=O)C(Cl)(Cl)Cl)[nH]1 | > 100 | > 100 | > 100 | > 100 | > 100 | > 100 | > 100 | > 100 | > 100 | > 100 | > 100 | > 100 | > 100 | > 100
2 | O=c1c2cccnc2[nH]c2ccc3scnc3c12 | > 10 | > 10 | > 10 | > 10 | > 10 | > 10 | > 10 | > 10 | > 10 | > 10 | > 10 | > 10 | > 10 | > 10
3 | COC(=O)C1([C@@H]2C[C@@H](O)[C@]3(C)CC/C=C(\C)CCC[C@H](C)[C@H](O)[C@@H]2O3)CC1 | > 100 | > 100 | > 100 | > 100 | > 100 | > 100 | > 100 | > 100 | > 100 | 69.2 | > 100 | > 100 | > 100 | > 100
4 | COC1Cc2c(C)c(OC(C)=O)c3cccnc3c2O1 (configuration not stated) | 29.2 | > 100 | > 100 | > 100 | 29 | > 100 | > 100 | 61.5 | 25.3 | > 100 | 67.4 | 62.3 | > 100 | > 100
5 | CCOC(=O)C(NNS(=O)(=O)c1ccc(C)cc1)S(=O)(=O)C(F)(F)C(F)(F)C(F)(F)C(F)(F)F (configuration not stated) | > 100 | > 100 | > 100 | > 100 | > 100 | > 100 | > 100 | > 100 | > 100 | > 100 | > 100 | > 100 | > 100 | > 100
6 | CC(C)[Si](OC12CCC(CC1O)CC2C(=O)O)(C(C)C)C(C)C (configuration not stated) | 51.6 | 36.4 | 58.3 | 27.2 | 27.6 | 29.1 | 17.1 | 20.2 | 6.87 | 31.6 | 33.6 | 37.5 | 25 | 31
7 | O=C(O)CN1CCNCCN(CC(=O)O)CC1 | 39.5 | > 100 | > 100 | 98.4 | > 100 | > 100 | > 90.6 | > 64.4 | > 28.6 | > 42.9 | 7.3 | > 100 | > 100 | > 68.7
8 | NC(=S)SCCC(=O)O | > 100 | > 100 | > 100 | > 100 | > 100 | > 100 | > 100 | > 100 | > 100 | > 100 | > 100 | > 100 | > 100 | > 100
9 | Cc1cc(C)c2c(=O)cc(-c3ccc(Cl)cc3)[nH]c2n1 | > 74.2 | > 55.4 | > 100 | > 100 | > 100 | > 100 | > 100 | > 100 | > 83 | > 100 | > 74.3 | > 100 | > 50.7 | > 100
10 | COc1cccc2c1C(=O)C(=O)c1c-2oc(=O)c2cc(C)cc(OC)c12 | 35.6 | > 75 | 62.4 | > 75 | > 75 | > 75 | > 75 | > 75 | 49.9 | > 75 | 31.7 | > 75 | > 75 | > 75
11 | Cc1[nH]c2c(C)ccc(C)c2c1CC(=O)O | > 100 | > 100 | 66.8 | > 100 | > 100 | > 100 | > 100 | > 100 | 23.7 | > 100 | > 100 | > 100 | 69.9 | > 100
12 | O=C1c2ccccc2C(=O)c2c(OCC3CO3)ccc(OCC3CO3)c21 (configuration not stated) | 15.5 | 10.6 | 19.8 | 36.2 | 7.95 | 27.2 | 53.1 | 8.86 | 2.18 | 35.9 | 8.73 | 24.1 | 12 | > 47.5
13 | NCC(=O)C(O)C(O)C(O)CO (configuration not stated) | > 100 | > 100 | > 100 | > 100 | > 100 | > 100 | > 100 | > 100 | > 100 | > 100 | > 100 | > 100 | > 100 | > 100
